Measured values: PubChem BioAssay (NCI)
“And” between values parts separate entries of the source, which are not always exact repeats. Identical values can stand only once.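 Compound exposure: 48 hours, 5 concentrations, 96-well plates. At the GI50, growth is halved. Definition used: TGI = concentration required for complete inhibition of growth.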

Experiments:
Experiment in all cases: NCI-60 cell line screen, 48 h
A498 renal = test system: A498 renal
CAKI-1 renal = test system: CAKI-1 renal
CCRF-CEM leukemia = test system: CCRF-CEM leukemia
DU-145 prostate = test system: DU-145 prostate
HOP-92 NSCLC = test system: HOP-92 NSCLC
HS 578T breast = test system: HS 578T breast
HT29 colon = test system: HT29 colon
SK-OV-3 ovarian = test system: SK-OV-3 ovarian
T-47D breast = test system: T-47D breast
UACC-62 melanoma = test system: UACC-62 melanoma

SMILES | GI50 (A498 renal) | TGI (A498 renal) | GI50 (CAKI-1 renal) | TGI (CAKI-1 renal) | GI50 (CCRF-CEM leukemia) | TGI (CCRF-CEM leukemia) | GI50 (DU-145 prostate) | TGI (DU-145 prostate) | GI50 (HOP-92 NSCLC) | TGI (HOP-92 NSCLC) | GI50 (HS 578T breast) | TGI (HS 578T breast) | GI50 (HT29 colon) | TGI (HT29 colon) | GI50 (SK-OV-3 ovarian) | TGI (SK-OV-3 ovarian) | GI50 (T-47D breast) | TGI (T-47D breast) | GI50 (UACC-62 melanoma) | TGI (UACC-62 melanoma)
CCNNC(=O)[C@@H]1[C@H](c2cc(OC)c(OC)c(OC)c2)c2cc3c(cc2[C@H](O)[C@H]1CO)OCO3 | 0.211 µM | 0.703 µM | 0.596 µM | > 100 µM | 0.316 µM | > 100 µM | 0.537 µM | > 100 µM | 0.433 µM | > 100 µM | 0.376 µM | > 100 µM | 0.351 µM | 13 µM | 0.29 µM | 1.08 µM | > 100 µM | > 100 µM | 0.398 µM | > 100 µM
Cn1cnc2c(F)c(Nc3ccc(Br)cc3F)c(C(=O)NOCCO)cc21 | 0.0184 µM and 0.0314 µM | 0.275 µM and 0.394 µM | 5.94 µM | > 100 µM | > 100 µM | > 100 µM | 51.1 µM | > 100 µM | 0.0606 µM and 0.11 µM | 1.9 µM and 2.01 µM | > 2.14 µM and 33.6 µM | > 100 µM | 0.0263 µM and 0.0316 µM | > 100 µM | > 92 µM | > 100 µM | > 100 µM | > 100 µM | 0.0174 µM and 0.0234 µM | 0.228 µM and 0.664 µM
CN1C[C@@H]2Cn3c(c(C4=C(c5cn(C)c6ccccc56)C(=O)NC4=O)c4ccccc43)C[C@H]2C1 | 4.76 µM and 4.45 µM | 8.59 µM and 8.23 µM | 3.43 µM and 4.29 µM | 8.28 µM and 9.96 µM | 2.13 µM and 5.69 µM | 11.7 µM and 17.6 µM | 6.27 µM and 5.46 µM | 16.3 µM and 14.7 µM | 6.76 µM | 12.7 µM | 2.71 µM and 2.63 µM | 8.34 µM and 9.51 µM | 3.87 µM and 3.22 µM | 10.8 µM and 11.6 µM | 4.56 µM and 4.06 µM | 11.8 µM and 11.9 µM | 4.26 µM and 5.32 µM | 9.46 µM and 11.5 µM | 3.89 µM and 3.61 µM | 7.64 µM and 7.19 µM
O=C(N/N=C/c1ccc(Cl)cc1Cl)c1ccc2nc(-c3ccc(Cl)cc3)[nH]c2c1 | 1.74 µM | 4.94 µM | 1.7 µM | 3.29 µM | 1.43 µM | 9.03 µM | 1.76 µM | 3.44 µM | 1.67 µM | 3.53 µM | 2.28 µM | 5.27 µM | 1.97 µM | 5.47 µM | 1.79 µM | 4.31 µM | 1.79 µM | 3.83 µM | 1.78 µM | 3.4 µM
COc1cc2c3c(n(CCCBr)c(=O)c2cc1OC)-c1ccc(F)cc1C3=O | 14.8 µM | 40.9 µM | 7.9 µM | 33.7 µM | 1.99 µM | 8.94 µM | 4.33 µM | 20.6 µM | 4.07 µM | 28.4 µM | 32 µM | > 100 µM | 16.9 µM | > 100 µM | 15.8 µM | 59 µM | 4.86 µM | 62 µM | 3.93 µM | 24.5 µM
Cc1cnccc1N=Nc1ccc(N(C)C)cc1 |  | 94.1 µM |  | > 100 µM |  | > 100 µM |  | > 100 µM |  | 36.1 µM |  | > 100 µM |  | 53.9 µM |  | 48.2 µM |  | > 100 µM |  | 40.7 µM
CC(C)C[C@H](NC(=O)[C@H](Cc1cccc2ccccc12)NS(=O)(=O)c1cccc2cccnc12)B(O)O | 0.00342 µM | 0.222 µM and 0.126 µM | 0.032 µM | 0.198 µM and 1.19 µM |  |  |  | 0.524 µM | 0.0299 µM | 0.0547 µM and 0.0938 µM | 0.00137 µM | 0.017 µM | 0.000937 µM | 0.022 µM |  | > 33.8 µM | 0.000928 µM | 0.0269 µM and < 0.0218 µM | 0.00488 µM | 0.0385 µM and 0.125 µM
COc1cc(C2CC(=O)Nc3c2ccc2ccccc32)cc(Br)c1OC (stereo not given) | 0.272 µM | 2.29 µM | 0.375 µM | > 100 µM | 0.292 µM | 1.41 µM | 0.653 µM | > 38.2 µM | 0.176 µM | 2.42 µM | 0.376 µM | > 23.2 µM | 0.37 µM | 18.2 µM | 0.507 µM | > 22.7 µM | 0.811 µM | > 100 µM | 0.54 µM | 
CCOC(=O)C(C(=O)OCC)C(=O)c1ccccc1C(=O)c1ccccc1 |  | > 100 µM |  | > 100 µM |  | > 100 µM |  | > 100 µM |  | > 100 µM |  | > 100 µM |  | > 100 µM |  | > 100 µM |  | > 100 µM |  | > 100 µM
C=C1C(OC/C=C/COC2O[C@@H]3O[C@@]4(C)CC[C@H]5[C@H](C)CC[C@@H](C2=C)[C@@]35OO4)O[C@@H]2O[C@@]3(C)CC[C@H]4[C@H](C)CC[C@@H]1[C@@]24OO3 (stereo not given in full) | 26 µM | > 100 µM | 1.63 µM | 21.7 µM | 0.0325 µM | > 40 µM | 15.5 µM | 37.6 µM | 1.14 µM | 36.3 µM | 12.6 µM | 59.6 µM | 0.0438 µM | > 49.2 µM | 51.3 µM | > 100 µM | 0.0158 µM | 21.2 µM | 2.01 µM | 69.1 µM
O=c1oc2c3ccc4cnccc4c3[nH]c2c2ccccc12 | 95.5 µM | > 100 µM | 47 µM | > 100 µM | 3.94 µM | 11.6 µM | 12.3 µM | 32.9 µM | 10.2 µM | 35 µM | 21.3 µM | > 100 µM | 10.5 µM | 37.2 µM | > 100 µM | > 100 µM | 9.78 µM | > 100 µM | 17.6 µM | 42.1 µM
COc1ccc(-c2cc(-c3cccc(NS(C)(=O)=O)c3)nc(N)c2C#N)cc1 | 0.116 µM | 54 µM | 0.0766 µM | > 34.4 µM | 0.0875 µM | > 100 µM | 0.164 µM | 8.82 µM | 3.38 µM | 48.7 µM | 0.0468 µM | 2.39 µM | 0.0382 µM | 0.731 µM | 0.0879 µM | 1.57 µM | 0.362 µM | 13.7 µM | 0.0459 µM | 15.9 µM
C=C(CNC(=O)c1ccccc1)c1ccc(C(=O)Nc2ccccc2N)cc1 | 1.37 µM | 7.58 µM | 4.09 µM | 45.4 µM | 0.493 µM | 8.38 µM | 4.08 µM | > 100 µM | 1.15 µM | > 100 µM | 20 µM | > 100 µM | 3.86 µM | > 100 µM | > 100 µM | > 100 µM | 4.99 µM | > 100 µM | 1.75 µM | 11.4 µM
